Experimental data taken from US20240368173A1, “TRICYCLIC GPR65 MODULATORS” (PATHIOS THERAPEUTICS LIMITED, priority 2021, published 2024).

Target: human recombinant GPR65 (Homo sapiens, UniProt Q8IYL9)
Assay: Human GPR65 cAMP HTRF antagonist assay
Format: cell-based
Settings: not given
Outline: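 Antagonism measured as suppression of the cAMP rise when pH is dropped to 7.2 (control wells pH 7.9) in 1321N1 cells stably carrying human GPR65. Cells in KRH with 1 mM IBMX and 200 μM EDTA saw compound 30 min, then acid stimulation 30 min; HTRF cAMP detection, normalised, 4-parameter logistic IC50.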

Chain of human recombinant GPR65 (Q8IYL9 whole entry): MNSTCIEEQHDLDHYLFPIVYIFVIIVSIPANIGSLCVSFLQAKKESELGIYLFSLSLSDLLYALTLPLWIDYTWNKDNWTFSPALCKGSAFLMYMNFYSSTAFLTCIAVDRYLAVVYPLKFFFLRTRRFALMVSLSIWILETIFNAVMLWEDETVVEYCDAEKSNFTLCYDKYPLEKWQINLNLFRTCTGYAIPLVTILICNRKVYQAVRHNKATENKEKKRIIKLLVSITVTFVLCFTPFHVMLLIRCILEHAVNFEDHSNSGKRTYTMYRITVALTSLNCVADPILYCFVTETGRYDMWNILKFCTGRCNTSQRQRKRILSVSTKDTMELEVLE

Row | Compound | IC50 [nM]
1 | O=C(Nc1cc(Cl)c(-c2ccc(OCCC(F)(F)F)nc2)cc1F)N1[C@H]2CC[C@@H]1c1n[nH]c(=O)cc1C2 [Compound 320, (6S,9R)-N-(5-Chloro-2-fluoro-4-(6-(3,3,3-trifluoropropoxy)pyridin-3-yl)phenyl)-3-oxo-3,5,6,7,8,9-hexahydro-2H-6,9-epiminocyclohepta[c]pyridazine-10-carboxamide] | < 500
2 | O=C(Nc1cc(F)c(-c2ccc(C(F)(F)F)nc2)cc1F)N1[C@H]2CC[C@@H]1c1ccnc(F)c1C2 [Compound 223, (5R,8S)-N-(2,5-Difluoro-4-(6-(trifluoromethyl)pyridin-3-yl)phenyl)-1-fluoro-6,7,8,9-tetrahydro-5H-5,8-epiminocyclohepta[c]pyridine-10-carboxamide] | < 500
3 | O=C(Nc1ccc(-c2ccsc2)cc1)N1[C@H]2CC[C@@H]1c1ccnc(F)c1C2 [Compound 55, (5R,8S)-1-Fluoro-N-(4-(thiophen-3-yl)phenyl)-6,7,8,9-tetrahydro-5H-5,8-epiminocyclohepta[c]pyridine-10-carboxamide] | < 500
4 | COc1ccc(-c2cc(F)c(NC(=O)N3[C@H]4CC[C@@H]3c3ccnc(F)c3C4)cc2Cl)c(F)n1 [Compound 214, (5R,8S)-N-(5-Chloro-2-fluoro-4-(2-fluoro-6-methoxypyridin-3-yl)phenyl)-1-fluoro-6,7,8,9-tetrahydro-5H-5,8-epiminocyclohepta[c]pyridine-10-carboxamide] | < 500
5 | O=C(Nc1cc(-c2cncc(F)c2)c(C(F)(F)F)cc1F)N1[C@H]2CC[C@@H]1c1c[nH]c(=O)cc1C2 [Compound 255, (6S,9R)-N-(2-Fluoro-5-(5-fluoropyridin-3-yl)-4-(trifluoromethyl)phenyl)-3-oxo-3,5,6,7,8,9-hexahydro-2H-6,9-epiminocyclohepta[c]pyridine-10-carboxamide] | < 500
6 | O=C(Nc1cc(Cl)c(-c2ccsn2)cc1F)N1[C@H]2CC[C@@H]1c1n[nH]c(=O)cc1C2 [Compound 191, (6S,9R)-N-(5-Chloro-2-fluoro-4-(isothiazol-3-yl)phenyl)-3-oxo-3,5,6,7,8,9-hexahydro-2H-6,9-epiminocyclohepta[c]pyridazine-10-carboxamide] | < 500
7 | O=C(Nc1cc(Cl)c(Cl)cc1F)N1[C@H]2CC[C@@H]1c1ncc(F)cc1C2 [Compound 98, (6S,9R)-N-(4,5-Dichloro-2-fluorophenyl)-3-fluoro-6,7,8,9-tetrahydro-5H-6,9-epiminocyclohepta[b]pyridine-10-carboxamide] | < 500
8 | O=C(Nc1cc(Cl)c(-c2ccnc(F)c2)cc1F)N1[C@H]2CC[C@@H]1c1ccnc(F)c1C2 [Compound 268, (5R,8S)-N-(5-Chloro-2-fluoro-4-(2-fluoropyridin-4-yl)phenyl)-1-fluoro-6,7,8,9-tetrahydro-5H-5,8-epiminocyclohepta[c]pyridine-10-carboxamide] | < 500
9 | O=C(Nc1cc(Cl)c(-c2ccccn2)cc1F)N1[C@H]2CC[C@@H]1c1n[nH]c(=O)cc1C2 [Compound 195, (6S,9R)-N-(5-Chloro-2-fluoro-4-(pyridin-2-yl)phenyl)-3-oxo-3,5,6,7,8,9-hexahydro-2H-6,9-epiminocyclohepta[c]pyridazine-10-carboxamide] | < 500
10 | C=C1c2c(ccnc2F)C2CCC1N2C(=O)Nc1cc(Cl)c(Cl)cc1F (racemic) [Compound 154, (±)—N-(4,5-Dichloro-2-fluorophenyl)-1-fluoro-9-methylene-6,7,8,9-tetrahydro-5H-5,8-epiminocyclohepta[c]pyridine-10-carboxamide] | < 500
11 | CC(C)Oc1ccc(-c2cc(F)c(NC(=O)N3[C@H]4CC[C@@H]3c3c[nH]c(=O)cc3C4)cc2Cl)cn1 [Compound 273, (6S,9R)-N-(5-Chloro-2-fluoro-4-(6-isopropoxypyridin-3-yl)phenyl)-3-oxo-3,5,6,7,8,9-hexahydro-2H-6,9-epiminocyclohepta[c]pyridine-10-carboxamide] | < 500
12 | O=C(Nc1ccccc1)c1cc(F)c(NC(=O)N2[C@H]3CC[C@@H]2c2n[nH]c(=O)cc2C3)cc1Cl [Compound 231, (6S,9R)—N-(5-Chloro-2-fluoro-4-(phenylcarbamoyl)phenyl)-3-oxo-3,5,6,7,8,9-hexahydro-2H-6,9-epiminocyclohepta[c]pyridazine-10-carboxamide] | 500 to 5000
13 | Cc1cc(-c2cc(F)c(NC(=O)N3[C@H]4CC[C@@H]3c3n[nH]c(=O)cc3C4)cc2Cl)ccn1 [Compound 134, (6S,9R)-N-(5-Chloro-2-fluoro-4-(2-methylpyridin-4-yl)phenyl)-3-oxo-3,5,6,7,8,9-hexahydro-2H-6,9-epiminocyclohepta[c]pyridazine-10-carboxamide] | < 500
14 | Cc1nc2ccc(-c3cc(F)c(NC(=O)N4[C@H]5CC[C@@H]4c4ccnc(F)c4C5)cc3Cl)cc2o1 [Compound 205, (5R,8S)-N-(5-Chloro-2-fluoro-4-(2-methylbenzo[d]oxazol-6-yl)phenyl)-1-fluoro-6,7,8,9-tetrahydro-5H-5,8-epiminocyclohepta[c]pyridine-10-carboxamide] | < 500
15 | O=C(Nc1cc(Br)c(C(F)(F)F)cc1F)N1[C@H]2CC[C@@H]1c1c[nH]c(=O)nc1C2 [Compound 28, (5R,8S)-N-(5-Bromo-2-fluoro-4-(trifluoromethyl)phenyl)-2-oxo-3,5,6,7,8,9-hexahydro-2H-5,8-epiminocyclohepta[d]pyrimidine-10-carboxamide] | < 500
16 | COC(=O)c1cncc(-c2cc(F)c(NC(=O)N3[C@H]4CC[C@@H]3c3n[nH]c(=O)cc3C4)cc2Cl)c1 [Compound 188, Methyl 5-(2-chloro-5-fluoro-4-((6S,9R)-3-oxo-3,5,6,7,8,9-hexahydro-2H-6,9-epiminocyclohepta[c]pyridazine-10-carboxamido)phenyl)nicotinate] | < 500
17 | O=C(Nc1cc(Cl)c(-c2ccc(OC3CC3)nc2)cc1F)N1[C@H]2CC[C@@H]1c1c[nH]c(=O)cc1C2 [Compound 222, (6S,9R)-N-(5-Chloro-4-(6-cyclopropoxypyridin-3-yl)-2-fluorophenyl)-3-oxo-3,5,6,7,8,9-hexahydro-2H-6,9-epiminocyclohepta[c]pyridine-10-carboxamide] | < 500

Same assay, conditions: 1321N1-hrGPR65 cells, cAMP HTRF, assay pH 7.2; read-out: hGPR65 IC50 (Activity of selected compounds according to the invention)

Row | Compound | IC50 [nM]
18 | O=C(Nc1ccc(Cl)c(Br)c1)N1[C@@H]2CC[C@H]1c1n[nH]c(=O)cc1C2 [Compound 50, (6R,9S)-N-(3-Bromo-4-chlorophenyl)-3-oxo-3,5,6,7,8,9-hexahydro-2H-6,9-epiminocyclohepta[c]pyridazine-10-carboxamide] | > 5000
19 | O=C(Nc1cc(Cl)c(-c2ccnnc2)cc1F)N1[C@H]2CC[C@@H]1c1n[nH]c(=O)cc1C2 [Compound 174, (6S,9R)-N-(5-Chloro-2-fluoro-4-(pyridazin-4-yl)phenyl)-3-oxo-3,5,6,7,8,9-hexahydro-2H-6,9-epiminocyclohepta[c]pyridazine-10-carboxamide] | > 5000
20 | O=C(Nc1cc(Cl)c(-c2cncnc2)cc1F)N1[C@H]2CC[C@@H]1c1n[nH]c(=O)cc1C2 [Compound 137, (6S,9R)-N-(5-Chloro-2-fluoro-4-(pyrimidin-5-yl)phenyl)-3-oxo-3,5,6,7,8,9-hexahydro-2H-6,9-epiminocyclohepta[c]pyridazine-10-carboxamide] | 500 to 5000
